Experimental data as given in patent publication US9708314B2, “Heterocyclic amide compound” (NISSAN CHEMICAL INDUSTRIES, LTD., priority 2013, dated 2017).

What was measured:
Assay type in all cases: in vivo
[1] = test system: Echinochloa oryzacola Vasing.; assay: Test Example 2: herbicidal activity, application during weed generation in submerged conditions; details: Eighteenth Table; application herbicide amount 320 g/ha
Summary of the method: (§1)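 Alluvial soil in Wagner pots flooded to 4 cm water depth; seeds sown mixed, grown in greenhouse at 25–30 °C. At one- to two-leaf stage, emulsion diluted with water to the set rate (g/ha) was applied to the water surface. Effect scored 0–5 by herbicidal ratio three weeks later.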

Monochoria vaginalis = assay: as above; details: Eighteenth Table; application herbicide amount 320 g/ha
Summary of the method: as §1

Scirpus juncoides = assay: as above; details: Eighteenth Table; application herbicide amount 320 g/ha
Summary of the method: as §1

Brassica campestris L. = assay: Test Example 4: effect on crop by application to foliage (diluvial soil, plastic box); details: application to foliage, application herbicide amount 320 g/ha
Summary of the method: (§2)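 Scores run from 0 (herbicidal ratio ≤5%) to 5 (≥90%, almost fully withered) and were assessed three weeks after foliar spraying. Seedlings had been raised for 14 days at 25-30° C in sterilized diluvial soil before treatment, with the emulsion diluted in water to the stated g/ha dose.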

Zea mays = assay: as above; details: application to foliage, application herbicide amount 320 g/ha
Summary of the method: as §2

[2] = test system: Beta vulgaris ssp. vulgaris; assay: as above; details: application to foliage, application herbicide amount 320 g/ha
Summary of the method: as §2

[3] = test system: directly sowed Oryza sativa; assay: as above; details: application to foliage, application herbicide amount 320 g/ha
Summary of the method: as §2

Triticum aestivum = assay: as above; details: application to foliage, application herbicide amount 320 g/ha
Summary of the method: as §2

Glycine max = assay: as above; details: application to foliage, application herbicide amount 320 g/ha
Summary of the method: as §2

Digitaria ciliaris = assay: Test Example 4: herbicidal effect by application to foliage (diluvial soil, plastic box); details: application to foliage, application herbicide amount 320 g/ha
Summary of the method: as §2

Chenopodium album = assay: as above; details: application to foliage, application herbicide amount 320 g/ha
Summary of the method: as §2

Abutilon theophrasti = assay: as above; details: application to foliage, application herbicide amount 320 g/ha
Summary of the method: as §2

[4] = test system: Echinochloa crus-galli var. crus-galli; assay: as above; details: application to foliage, application herbicide amount 320 g/ha
Summary of the method: as §2

Amaranthus retroflexus = assay: as above; details: application to foliage, application herbicide amount 320 g/ha
Summary of the method: as §2

Avena fatua = assay: as above; details: application to foliage, application herbicide amount 320 g/ha
Summary of the method: as §2

Apera spica-venti. = assay: as above; details: application to foliage, application herbicide amount 320 g/ha
Summary of the method: as §2

Galium spurium = assay: as above; details: application to foliage, application herbicide amount 320 g/ha
Summary of the method: as §2

Lolium multiflorum Lam. = assay: as above; details: application to foliage, application herbicide amount 320 g/ha
Summary of the method: as §2

Stellaria media = assay: as above; details: application to foliage, application herbicide amount 320 g/ha
Summary of the method: as §2

Veronica persica = assay: as above; details: application to foliage, application herbicide amount 320 g/ha
Summary of the method: as §2

Alopecurus myosuroides = assay: as above; details: application to foliage, application herbicide amount 320 g/ha
Summary of the method: as §2

| Structure (SMILES) | A (Echinochloa oryzicola Vasing.) herbicidal ratio grade [1] | C (Monochoria vaginalis) herbicidal ratio grade (Monochoria vaginalis) | B (Scirpus juncoides) herbicidal ratio grade (Scirpus juncoides) | g: effect on crop, Brassica campestris L. (Brassica campestris L.) | c: effect on crop, Zea mays (Zea mays) | f: effect on crop, Beta vulgaris ssp. vulgaris [2] | b: effect on crop, directly sowed Oryza sativa [3] | e: effect on crop, Triticum aestivum (Triticum aestivum) | d: effect on crop, Glycine max (Glycine max) | F: herbicidal effect on Digitaria ciliaris (Digitaria ciliaris) | O: herbicidal effect on Chenopodium album (Chenopodium album) | M: herbicidal effect on Abutilon theophrasti (Abutilon theophrasti) | H: herbicidal effect on Echinochloa crus-galli var. crus-galli [4] | N: herbicidal effect on Amaranthus retroflexus (Amaranthus retroflexus) | I: herbicidal effect on Avena fatua (Avena fatua) | L: herbicidal effect on Apera spica-venti. (Apera spica-venti.) | Q: herbicidal effect on Galium spurium (Galium spurium) | K: herbicidal effect on Lolium multiflorum Lam. (Lolium multiflorum Lam.) | P: herbicidal effect on Stellaria media (Stellaria media) | R: herbicidal effect on Veronica persica (Veronica persica) | other results |
| --- | --- | --- | --- | --- | --- | --- | --- | --- | --- | --- | --- | --- | --- | --- | --- | --- | --- | --- | --- | --- | --- |
| COCCOCc1nnc2c(C(=O)Nc3nnnn3C)ccc(C(F)(F)F)n12 [2-014] | 5 (Herbicidal ratio of 90% or more (almost completely withered)) | 5 (Herbicidal ratio of 90% or more (almost completely withered)) | 5 (Herbicidal ratio of 90% or more (almost completely withered)) | 4 (Herbicidal ratio of 70% or more and less than 90%) | 3 (Herbicidal ratio of 40% or more and less than 70%) | 5 (Herbicidal ratio of 90% or more (almost completely withered)) | 5 (Herbicidal ratio of 90% or more (almost completely withered)) | 4 (Herbicidal ratio of 70% or more and less than 90%) | 4 (Herbicidal ratio of 70% or more and less than 90%) | 5 (Herbicidal ratio of 90% or more (almost completely withered)) | 5 (Herbicidal ratio of 90% or more (almost completely withered)) | 5 (Herbicidal ratio of 90% or more (almost completely withered)) | 5 (Herbicidal ratio of 90% or more (almost completely withered)) | 5 (Herbicidal ratio of 90% or more (almost completely withered)) | 4 (Herbicidal ratio of 70% or more and less than 90%) | 4 (Herbicidal ratio of 70% or more and less than 90%) | 4 (Herbicidal ratio of 70% or more and less than 90%) | 4 (Herbicidal ratio of 70% or more and less than 90%) | 5 (Herbicidal ratio of 90% or more (almost completely withered)) | 5 (Herbicidal ratio of 90% or more (almost completely withered)) | J: herbicidal effect on Alopecurus myosuroides (Alopecurus myosuroides): 4 (Herbicidal ratio of 70% or more and less than 90%) |
| Cn1nnnc1NC(=O)c1ccc(C(F)(F)F)n2c(C(C)(C)C)nnc12 [2-027] | 5 (Herbicidal ratio of 90% or more (almost completely withered)) | 4 (Herbicidal ratio of 70% or more and less than 90%) | 4 (Herbicidal ratio of 70% or more and less than 90%) | 4 (Herbicidal ratio of 70% or more and less than 90%) | 0 (Herbicidal ratio of 5% or less (almost no effect)) | 5 (Herbicidal ratio of 90% or more (almost completely withered)) | 4 (Herbicidal ratio of 70% or more and less than 90%) | 3 (Herbicidal ratio of 40% or more and less than 70%) | 1 (Herbicidal ratio of 5% or more and less than 20%) | 5 (Herbicidal ratio of 90% or more (almost completely withered)) | 5 (Herbicidal ratio of 90% or more (almost completely withered)) | 5 (Herbicidal ratio of 90% or more (almost completely withered)) | 5 (Herbicidal ratio of 90% or more (almost completely withered)) | 5 (Herbicidal ratio of 90% or more (almost completely withered)) | 3 (Herbicidal ratio of 40% or more and less than 70%) | 4 (Herbicidal ratio of 70% or more and less than 90%) | 4 (Herbicidal ratio of 70% or more and less than 90%) | 3 (Herbicidal ratio of 40% or more and less than 70%) | 5 (Herbicidal ratio of 90% or more (almost completely withered)) | 5 (Herbicidal ratio of 90% or more (almost completely withered)) | J: herbicidal effect on Alopecurus myosuroides (Alopecurus myosuroides): 4 (Herbicidal ratio of 70% or more and less than 90%) |
